The test system of test [1] is Venturia inaequalis. As to the kind of experiment: Venturia test (apples)/preventive. The note with it: Table A, preventive, evaluated 10 days after inoculation.
Procedure: After the spray coating has dried on, the plants are inoculated with an aqueous conidia suspension of the causal agent of apple scab (Venturia inaequalis) and then remain for 1 day in an incubation cabinet at approximately 20° C. and a relative atmospheric humidity of 100%.
The plants are then placed in a greenhouse at approximately 21° C. and a relative atmospheric humidity of approximately 90%.
The test is evaluated 10 days after the inoculation.
Test [2] relates to Sphaerotheca fuliginea. As to the kind of experiment: Sphaerotheca test (cucumbers)/preventive. The note with it: evaluated 7 days after inoculation.
Procedure: After the spray coating has dried on, the plants are inoculated with an aqueous spore suspension of Sphaerotheca fuliginea. The plants are then placed in a greenhouse at approximately 23° C. and a relative atmospheric humidity of approximately 70%.
The test is evaluated 7 days after the inoculation.
For test [3], the system named is Alternaria solani. As to the kind of experiment: Alternaria test (tomatoes)/preventive. The following applies: Table C, preventive, application rate 50 ppm a.i., evaluated 3 days after inoculation.
Procedure: After the spray coating has dried on, the plants are inoculated with an aqueous spore suspension of Alternaria solani. The plants are then placed in an incubation cabinet at approximately 20° C. and a relative atmospheric humidity of 100%.
The test is evaluated 3 days after the inoculation.
The test system of test [4] is Botrytis cinerea. As to the kind of experiment: Botrytis test (beans)/preventive. The note with it: Table D, preventive, application rate 10 ppm a.i., size of lesions 2 days after inoculation.
Procedure: After the spray coating has dried on, 2 small pieces of agar covered with growth of Botrytis cinerea are placed on each leaf. The inoculated plants are placed in a darkened chamber at 20° C. and a relative atmospheric humidity of 100%.
2 days after the inoculation, the size of the lesions on the leaves is evaluated.
Where [5] appears, read: Table B2, preventive, application rate 2 ppm a.i.
Where [6] appears, read: Table B1, preventive, application rate 100 ppm a.i.

For `CC1COC(Cn2cncn2)(c2ccc(Oc3ccc(Cl)cc3)cc2Cl)O1` (stereo not shown) [F7 difenoconazole, difenoconazole], the figures for the “Efficacy in % found” value in test [1] (application rate 1 ppm a.i.) and in test [2] (setting [5]) were 20% and 0%, respectively.
For `CC1(C(=O)Nc2ccc(O)c(Cl)c2Cl)CCCCC1` [F16 fenhexamid, fenhexamid], the “Efficacy in % found” value in test [2] (setting [6]) is recorded as 33%; in test [3], 43%; in test [4] it was 88%.
Regarding `OC(Cc1ccccc1Cl)(Cn1nc[nH]c1=S)C1(Cl)CC1` (stereo not shown) [F41 prothioconazole, prothioconazole], the “Efficacy in % found” value in test [2] (setting [5]) is 38%.
Turning to `CCCN(CC)CC1COC2(CCC(C(C)(C)C)CC2)O1` (stereo not shown) [F46 spiroxamine, spiroxamine], the results for the “Efficacy in % found” value in test [2] (setting [6]) and in test [3] were 38% and 62%, respectively.
Regarding `CC(C)(C)C(O)(CCc1ccc(Cl)cc1)Cn1cncn1` (stereo not shown) [F47 tebuconazole, tebuconazole], the “Efficacy in % found” value was 13% in test [1] (application rate 2 ppm a.i.) and 29% in test [2] (setting [5]).

The values above are taken from patent US9700056B2.
